{"source": "patent US20190381025A1", "about": "“SOLID DISPERSIONS OF (R)-N-((4-METHOXY-6-METHYL-2-OXO-1,2-DIHYDROPYRIDIN-3-YL)METHYL)-2-METHYL-1-(1-(1-(2,2,2-TRIFLUOROETHYL)PIPERIDIN-4-YL)ETHYL)-1H-INDOLE-3-CARBOXAMIDE” (Constellation Pharmaceuticals, Inc., priority 2017, published 2019)", "experiment": "pharmacokinetic studies (PK) of solid dispersions in fasted, famotidine or pentagastrin pre-treated dogs", "type": "in vivo", "conditions": "above pH 2.5; dogs following pre-treatment with famotidine (FIG. 1)", "experimental": "Several rounds of pharmacokinetic studies (PK) were performed and included four diverse solid dispersions comprising 50 wt % amorphous (R)—N-((4-methoxy-6-methyl-2-oxo-1,2-dihydropyridin-3-yl)methyl)-2-methyl-1-(1-(1-(2,2,2-trifluoroethyl)piperidin-4-yl)ethyl)-1H-indole-3-carboxamide and PVP, PVP-PA with NaHCO3, HPMC, and HPMC-AS polymer systems, in fasted, famotidine treated dogs at a 30 mg/kg dose.\nAll solid dispersions were prepared as aqueous suspensions at 60 mg/mL in the toxicology vehicle, 0.5% MC/0.1% Tween 80 and does with 30 minutes of preparation. All dogs tested were carried over from study to study.", "data": [{"compound": "COc1cc(C)[nH]c(=O)c1CNC(=O)c1c(C)n([C@H](C)C2CCN(CC(F)(F)F)CC2)c2ccccc12", "note": "[(R)—N-((4-methoxy-6-methyl-2-oxo-1,2-dihydropyridin-3-yl)methyl)-2-methyl-1-(1-(1-(2,2,2-trifluoroethyl)piperidin-4-yl)ethyl)-1H-indole-3-carboxamide]", "values": [{"measurement": "absorption", "value": "reduced absorption"}]}]}
